These molecules were tested against DOT1L(1-416) (Homo sapiens, UniProt Q8TEK3) (assay: Determination of IC50: DOT1L(1-416) methyltransferase assay, 3H-SAM, oligonucleosome substrate, Flashplate). Conditions: class symbols; read-out: DOT1L IC50.
Assay type: biochemical
Outline: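 Compounds in 10-point 3-fold DMSO dilutions were tested in reactions started with substrate mix of 200 nM [3H]-SAM, 600 nM unlabeled SAM and 20 nM oligonucleosome. Reactions ran 120 min at room temperature and were quenched with 100 μM SAM. Labeled substrate was captured on streptavidin Flashplates and counted by scintillation to give IC50.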

Chain of DOT1L(1-416) (Q8TEK3 1-416): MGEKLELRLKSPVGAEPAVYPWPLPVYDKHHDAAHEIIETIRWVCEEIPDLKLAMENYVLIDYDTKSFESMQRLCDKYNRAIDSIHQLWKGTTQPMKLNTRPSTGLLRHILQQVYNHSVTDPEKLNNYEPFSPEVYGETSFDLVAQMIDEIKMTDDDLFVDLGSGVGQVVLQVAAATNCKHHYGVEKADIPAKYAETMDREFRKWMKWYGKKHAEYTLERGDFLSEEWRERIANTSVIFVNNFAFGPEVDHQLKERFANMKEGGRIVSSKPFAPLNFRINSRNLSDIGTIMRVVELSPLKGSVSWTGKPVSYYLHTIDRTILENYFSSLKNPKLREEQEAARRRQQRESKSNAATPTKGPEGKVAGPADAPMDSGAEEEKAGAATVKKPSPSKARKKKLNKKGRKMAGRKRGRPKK

| Compound | IC50 |
| --- | --- |
| COCC(C)(C)c1ccc2[nH]c(CC[C@H]3C[C@H](N(C[C@H]4O[C@@H](n5cnc6c(N)ncnc65)[C@H](O)[C@@H]4O)C(C)C)C3)nc2c1 [Compound 121, (2R,3R,4S,5R)-2-(6-amino-9H-purin-9-yl)-5-((isopropyl((1s,3R)-3-(2-(5-(1-methoxy-2-methylpropan-2-yl)-1H-benzo[d]imidazol-2-yl)ethyl)cyclobutyl)amino)methyl) tetrahydrofuran-3,4-diol] | < 100 nM |
| CN(C[C@H]1C[C@@H](n2ccc3c(N)ncnc32)[C@H](O)[C@@H]1O)[C@H]1C[C@@H](CCc2nc3cc(Cl)c(Cl)cc3[nH]2)C1 [Compound 52, (1R,2S,3R,5R)-3-(4-amino-7H-pyrrolo[2,3-d]pyrimidin-7-yl)-5-((((1r,3S)-3-(2-(5,6-dichloro-1H-benzo[d]imidazol-2-yl)ethyl)cyclobutyl)(methyl)amino)methyl)cyclopentane-1,2-diol] | < 100 nM |
| CC(C)N(C[C@H]1C[C@@H](n2ccc3c(N)ncnc32)[C@H](O)[C@@H]1O)[C@H]1C[C@@H](CCc2nc3cc(C(C)(C)C)ccc3[nH]2)C1 [Compound 41, (1R,2S,3R,5R)-3-(4-amino-7H-pyrrolo[2,3-d]pyrimidin-7-yl)-5-((((1r,3S)-3-(2-(5-(tert-butyl)-1H-benzo[d]imidazol-2-yl)ethyl)cyclobutyl)(isopropyl)amino)methyl)cyclopentane-1,2-diol] | < 100 nM |
| CC(C)N(C[C@H]1O[C@@H](n2ccc3c(N)ncnc32)[C@H](O)[C@@H]1O)[C@H]1C[C@@H](CCc2nc3cc(OC(F)(F)F)ccc3[nH]2)C1 [Compound 87, (2R,3R,4S,5R)-2-(4-amino-7H-pyrrolo[2,3-d]pyrimidin-7-yl)-5-((isopropyl((1r,3S)-3-(2-(5-(trifluoromethoxy)-1H-benzo[d]imidazol-2-yl)ethyl)cyclobutyl)amino)methyl)tetrahydrofuran-3,4-diol] | < 100 nM |
| CN(C[C@H]1O[C@@H](n2cnc3c(N)ncnc32)[C@H](O)[C@@H]1O)[C@H]1C[C@H](CCc2nc3cc(C4COC4)ccc3[nH]2)C1 [Compound 65, (2R,3R,4S,5R)-2-(6-amino-9H-purin-9-yl)-5-((methyl((1s,3R)-3-(2-(5-(oxetan-3-yl)-1H-benzo[d]imidazol-2-yl)ethyl)cyclobutyl)amino)methyl)tetrahydrofuran-3,4-diol] | 100 to 1000 nM |
| CC(C)N(CC1CC(Cc2nc3cc(C(F)(F)F)ccc3[nH]2)C1)C[C@H]1C[C@@H](n2ccc3c(N)ncnc32)[C@H](O)[C@@H]1O (stereo partly shown) [Compound 15] | 1000 to 10000 nM |
| COCC(C)(C)c1ccc2[nH]c(CC[C@H]3C[C@@H](N(C[C@H]4O[C@@H](n5cnc6c(N)ncnc65)[C@H](O)[C@@H]4O)C(C)C)C3)nc2c1 [Compound 122, (2R,3R,4S,5R)-2-(6-amino-9H-purin-9-yl)-5-((isopropyl((1r,3S)-3-(2-(5-(1-methoxy-2-methylpropan-2-yl)-1H-benzo[d]imidazol-2-yl)ethyl)cyclobutyl)amino)methyl) tetrahydrofuran-3,4-diol] | < 100 nM |
| CN(C[C@H]1O[C@@H](n2cnc3c(N)ncnc32)[C@H](O)[C@@H]1O)[C@H]1C[C@H](CCc2nc3cc(C4(C)CCC4)ccc3[nH]2)C1 [Compound 34] | < 100 nM |
| CN(C[C@H]1O[C@@H](n2ccc3c(N)ncnc32)[C@H](O)[C@@H]1O)[C@H]1C[C@H](CCc2nc3cc(OC(F)(F)F)ccc3[nH]2)C1 [Compound 95, (2R,3R,4S,5R)-2-(4-amino-7H-pyrrolo[2,3-d]pyrimidin-7-yl)-5-((methyl((1s,3R)-3-(2-(5-(trifluoromethoxy)-1H-benzo[d]imidazol-2-yl)ethyl)eyclobutyl)amino)methyl) tetrahydrofuran-3,4-diol] | < 100 nM |
| CN(C[C@H]1O[C@@H](n2cnc3c(N)ncnc32)[C@H](O)[C@@H]1O)[C@H]1C[C@@H](CCc2nc3cc(C4(C)CCC4)ccc3[nH]2)C1 [Compound 30, (2R,3R,4S,5R)-2-(6-amino-9H-purin-9-yl)-5-((methyl((1r,3S)-3-(2-(5-(1-methylcyclobutyl)-1H-benzo[d]imidazol-2-yl)ethyl)cyclobutyl)amino)methyl)tetrahydrofuran-3,4-diol] | < 100 nM |
| CC(C)N(C[C@@H]1C[C@@H](O)[C@H](n2ccc3c(N)ncnc32)C1)[C@H]1C[C@H](CCc2nc3cc(C(C)(C)C)ccc3[nH]2)C1 [Compound 104, (1R,2R,4S)-2-(4-amino-7H-pyrrolo[2,3-d]pyrimidin-7-yl)-4-((((1s,3S)-3-(2-(5-(tert-butyl)-1H-benzo[d]imidazol-2-yl)ethyl)cyclobutyl) (isopropyl)amino)methyl)cyclopentanol] | 1000 to 10000 nM |
| CN(C[C@H]1O[C@@H](n2cnc3c(N)ncnc32)[C@H](O)[C@@H]1O)[C@H]1C[C@H](CCc2nc3cc(C4(C#N)CC4)ccc3[nH]2)C1 [Compound 138, 1-(2-(2-((1R,3s)-3-((((2R,3S,4R,5R)-5-(6-amino-9H-purin-9-yl)-3,4-dihydroxytetrahydro-furan-2-yl)methyl)(methyl)amino)cyclobutyl)ethyl)-1H-benzo[d]imidazol-5-yl)cyclo-propanecarbonitrile] | < 100 nM |
| CN(C[C@H]1C[C@@H](n2ccc3c(N)ncnc32)[C@H](O)[C@@H]1O)[C@H]1C[C@H](CCc2nc3cc(C(F)(F)F)ccc3[nH]2)C1 [Compound 11, (1R,2S,3R,5R)-3-(4-amino-7H-pyrrolo[2,3-d]pyrimidin-7-yl)-5-((methyl((1s,3R)-3-(2-(5-(trifluoromethyl)-1H-benzo[d]imidazol-2-yl)ethyl)cyclobutyl)amino)methyl)cyclopentane-1,2-diol] | < 100 nM |
| CC(C)N(C[C@H]1O[C@@H](n2cnc3c(N)ncnc32)[C@H](O)[C@@H]1O)[C@H]1C[C@H](CCc2nc3cc(CC(F)(F)F)ccc3[nH]2)C1 [Compound 123, (2R,3R,4S,5R)-2-(6-amino-9H-purin-9-yl)-5-((isopropyl((1s,3R)-3-(2-(5-(2,2,2-trifluoroethyl)-1H-benzo[d]imidazol-2-yl)ethyl)cyclobutyl)amino)methyl) tetrahydrofuran-3,4-diol] | < 100 nM |
| CC(C)N(C[C@H]1O[C@@H](n2ccc3c(N)ncnc32)[C@H](O)[C@@H]1O)[C@H]1C[C@H](CCc2nc3cc(OC(F)(F)F)ccc3[nH]2)C1 [Compound 76, (2R,3R,4S,5R)-2-(4-amino-7H-pyrrolo[2,3-d]pyrimidin-7-yl)-5-((isopropyl((1s,3R)-3-(2-(5-(trifluoromethoxy)-1H-benzo[d]imidazol-2-yl)ethyl)cyclobutyl)amino)methyl)tetrahydrofuran-3,4-diol] | < 100 nM |
| CC(C)N(C[C@@H]1C[C@@H](O)[C@H](n2ccc3c(N)ncnc32)C1)[C@H]1C[C@@H](CCc2nc3cc(C(C)(C)C)ccc3[nH]2)C1 [Compound 101, (1R,2R,4S)-2-(4-amino-7H-pyrrolo[2,3-d]pyrimidin-7-yl)-4-((((1r,3R)-3-(2-(5-(tert-butyl)-1H-benzo[d]imidazol-2-yl)ethyl)cyclobutyl) (isopropyl)amino)methyl)cyclopentanol] | 100 to 1000 nM |
| CN(C[C@H]1O[C@@H](n2ccc3c(N)ncnc32)[C@H](O)[C@@H]1O)[C@H]1C[C@@H](CCc2nc3cc(C(C)(C)C)ccc3[nH]2)C1 [Compound 86, (2R,3R,4S,5R)-2-(4-amino-7H-pyrrolo[2,3-d]pyrimidin-7-yl)-5-((((1r,3S)-3-(2-(5-(tert-butyl)-1H-benzo[d]imidazol-2-yl)ethyl)cyclobutyl) (methyl)amino)methyl) tetrahydrofuran-3,4-diol] | < 100 nM |
| CC(C)N(C[C@H]1O[C@@H](n2ccc3c(N)ncnc32)[C@H](O)[C@@H]1O)[C@H]1C[C@H](CCc2nc3cc(C(C)(C)C)ccc3[nH]2)C1 [Compound 75, (2R,3R,4S,5R)-2-(4-amino-7H-pyrrolo[2,3-d]pyrimidin-7-yl)-5-((((1s,3R)-3-(2-(5-(tert-butyl)-1H-benzo[d]imidazol-2-yl)ethyl)cyclobutyl)(isopropyl)amino)methyl)tetrahydrofuran-3,4-diol] | < 100 nM |
| CC(C)(C)c1ccc2[nH]c(CC[C@H]3C[C@H](N(C[C@H]4C[C@@H](n5ccc6c(N)ncnc65)[C@H](O)[C@@H]4O)C4CCC4)C3)nc2c1 [Compound 51, (1R,2S,3R,5R)-3-(4-amino-7H-pyrrolo[2,3-d]pyrimidin-7-yl)-5-((((1s,3R)-3-(2-(5-(tert-butyl)-1H-benzo[d]imidazol-2-yl)ethyl)cyclobutyl)(cyclobutyl)amino)methyl)cyclopentane-1,2-diol] | < 100 nM |
| CC(C)N(C[C@@H]1C[C@@H](O)[C@H](n2ccc3c(N)ncnc32)C1)[C@H]1C[C@@H](CCc2nc3cc(Cl)c(C(F)(F)F)cc3[nH]2)C1 [Compound 105, (1R,2R,4S)-2-(4-amino-7H-pyrrolo[2,3-d]pyrimidin-7-yl)-4-((((1r,3R)-3-(2-(5-chloro-6-(trifluoromethyl)-1H-benzo[d]imidazol-2-yl)ethyl)cyclobutyl) (isopropyl)amino)methyl)cyclopentanol] | 1000 to 10000 nM |
| CC(C)N(C[C@@H]1C[C@@H](O)[C@H](n2ccc3c(N)ncnc32)C1)C1CC(CCc2nc3cc(Cl)c(C(F)(F)F)cc3[nH]2)C1 (stereo partly drawn) [Compound 84, (1R,2R,4S)-2-(4-amino-7H-pyrrolo[2,3-d]pyrimidin-7-yl)-4-(((3-(2-(5-chloro-6-(trifluoromethyl)-1H-benzo[d]imidazol-2-yl)ethyl)cyclobutyl) (isopropyl)amino)methyl)cyclopentanol] | 1000 to 10000 nM |
| CC(C)N(C[C@H]1C[C@@H](n2cnc3c(N)ncnc32)[C@H](O)[C@@H]1O)C1CC(CCc2nc3cc(C(C)(C)C)ccc3[nH]2)C1 (stereo partly drawn) [Compound 50, (1R,2S,3R,5R)-3-(6-amino-9H-purin-9-yl)-5-(((3-(2-(5-(tert-butyl)-1H-benzo[d]imidazol-2-yl)ethyl)cyclobutyl)(isopropyl)amino)methyl)cyclopentane-1,2-diol] | < 100 nM |

Same assay, conditions: read-out: DOT1L IC50

| Compound | IC50 |
| --- | --- |
| CC(C)N(C[C@H]1O[C@@H](n2ccc3c(N)ncnc32)[C@H](O)[C@@H]1O)[C@H]1C[C@@H](CCc2nc3cc(OC(F)(F)F)ccc3[nH]2)C1 [Compound 87, (2R,3R,4S,5R)-2-(4-amino-7H-pyrrolo[2,3-d]pyrimidin-7-yl)-5-((isopropyl((1r,3S)-3-(2-(5-(trifluoromethoxy)-1H-benzo[d]imidazol-2-yl)ethyl)cyclobutyl)amino)methyl)tetrahydrofuran-3,4-diol] | 0.8 nM |
| CN(C[C@H]1O[C@@H](n2ccc3c(N)ncnc32)[C@H](O)[C@@H]1O)[C@H]1C[C@@H](CCc2nc3cc(C(C)(C)C)ccc3[nH]2)C1 [Compound 86, (2R,3R,4S,5R)-2-(4-amino-7H-pyrrolo[2,3-d]pyrimidin-7-yl)-5-((((1r,3S)-3-(2-(5-(tert-butyl)-1H-benzo[d]imidazol-2-yl)ethyl)cyclobutyl) (methyl)amino)methyl) tetrahydrofuran-3,4-diol] | 0.62 nM |
| CC(C)N(C[C@H]1O[C@@H](n2ccc3c(N)ncnc32)[C@H](O)[C@@H]1O)[C@H]1C[C@H](CCc2nc3cc(C(C)(C)C)ccc3[nH]2)C1 [Compound 75, (2R,3R,4S,5R)-2-(4-amino-7H-pyrrolo[2,3-d]pyrimidin-7-yl)-5-((((1s,3R)-3-(2-(5-(tert-butyl)-1H-benzo[d]imidazol-2-yl)ethyl)cyclobutyl)(isopropyl)amino)methyl)tetrahydrofuran-3,4-diol] | 0.59 nM |

— patent US8580762B2, “Substituted purine and 7-deazapurine compounds” (Epizyme, Inc., priority 2010, dated 2013)
